Data taken from US20240099996A1, “METHODS FOR TREATING CANCER” (Radius Pharmaceuticals, Inc., priority 2015, published 2024).
Counter-ions that a name gives are not always drawn.

Experiment: Phase 1 dose escalation study in healthy post-menopausal women, treatment related AEs
Assay type: in vivo
Procedure: The subjects were 40-75 years old with BMI of 18.0-30 kg/m^2. Subjects having evidence of clinically relevant pathology, increased risk of stroke or of history venous thromboembolic events, or use of concomitant medication less than 14 days prior to admission to clinical research center (paracetamol allowed up to 3 days prior) were excluded. Dosing
The subjects were treated with placebo or at least one dose p.o., q.d. after a light breakfast for 7 days at dose levels of 200 mg, 500 mg, 750 mg and 1000 mg, respectively.

## CCNCCc1ccc(CN(CC)c2cc(OC)ccc2[C@@H]2CCc3cc(O)ccc3C2)cc1 [RAD1901, (6R)-6-(2-(N-(4-(2-(ethylamino)ethyl)benzyl)-N-ethylamino)-4-methoxyphenyl)-5,6,7,8-tetrahydronaphthalen-2-ol dihydrochloride]
200 mg, N = 15
  Abdominal discomfort Gr1: 3 (20) n(%)
  Abdominal discomfort Gr2: 0 n(%)
  Abdominal discomfort Gr3: 0 n(%)
  Abdominal distension Gr1: 1 (7) n(%)
  Abdominal distension Gr2: 1 (7) n(%)
  Abdominal distension Gr3: 0 n(%)
  Abdominal pain Gr1: 2 (13) n(%)
  Abdominal pain Gr2: 2 (13) n(%)
  Abdominal pain Gr3: 0 n(%)
  Diarrhoea Gr1: 0 n(%)
  Diarrhoea Gr2: 0 n(%)
  Diarrhoea Gr3: 0 n(%)
  Dizziness Gr1: 1 (7) n(%)
  Dizziness Gr2: 0 n(%)
  Dizziness Gr3: 0 n(%)
  Dyspepsia Gr1: 3 (20) n(%)
  Dyspepsia Gr2: 0 n(%)
  Dyspepsia Gr3: 0 n(%)
  Dysphagia Gr1: 0 n(%)
  Dysphagia Gr2: 0 n(%)
  Dysphagia Gr3: 0 n(%)
  Flatulance Gr1: 2 (13) n(%)
  Flatulance Gr2: 0 n(%)
  Flatulance Gr3: 0 n(%)
  Headache Gr1: 3 (20) n(%)
  Headache Gr2: 0 n(%)
  Headache Gr3: 0 n(%)
  Hiccups Gr1: 1 (7) n(%)
  Hiccups Gr2: 0 n(%)
  Hiccups Gr3: 0 n(%)
  Hot flush Gr1: 2 (13) n(%)
  Hot flush Gr2: 0 n(%)
  Hot flush Gr3: 0 n(%)
  Myalgia Gr1: 2 (13) n(%)
  Myalgia Gr2: 1 (7) n(%)
  Myalgia Gr3: 0 n(%)
  Nausea Gr1: 5 (33) n(%)
  Nausea Gr2: 0 n(%)
  Nausea Gr3: 0 n(%)
  Odynophagia Gr1: 2 (13) n(%)
  Odynophagia Gr2: 0 n(%)
  Odynophagia Gr3: 0 n(%)
  Oesophageal pain Gr1: 0 n(%)
  Oesophageal pain Gr2: 2 (13) n(%)
  Oesophageal pain Gr3: 0 n(%)
  Salivary hypersecretion Gr1: 2 (13) n(%)
  Salivary hypersecretion Gr2: 0 n(%)
  Salivary hypersecretion Gr3: 0 n(%)
  Sensation of a foreign body Gr1: 2 (13) n(%)
  Sensation of a foreign body Gr2: 0 n(%)
  Sensation of a foreign body Gr3: 0 n(%)
  Vomiting Gr1: 2 (13) n(%)
  Vomiting Gr2: 0 n(%)
  Vomiting Gr3: 0 n(%)
500 mg, N = 14
  Abdominal discomfort Gr1: 0 n(%)
  Abdominal discomfort Gr2: 0 n(%)
  Abdominal discomfort Gr3: 0 n(%)
  Abdominal distension Gr1: 1 n(%)
  Abdominal distension Gr2: 0 n(%)
  Abdominal distension Gr3: 0 n(%)
  Abdominal pain Gr1: 3 n(%)
  Abdominal pain Gr2: 0 n(%)
  Abdominal pain Gr3: 0 n(%)
  Diarrhoea Gr1: 3 n(%)
  Diarrhoea Gr2: 0 n(%)
  Diarrhoea Gr3: 0 n(%)
  Dizziness Gr1: 2 n(%)
  Dizziness Gr2: 0 n(%)
  Dizziness Gr3: 0 n(%)
  Dyspepsia Gr1: 5 n(%)
  Dyspepsia Gr2: 2 (14) n(%)
  Dyspepsia Gr3: 0 n(%)
  Dysphagia Gr1: 1 n(%)
  Dysphagia Gr2: 2 (14) n(%)
  Dysphagia Gr3: 0 n(%)
  Flatulance Gr1: 2 n(%)
  Flatulance Gr2: 0 n(%)
  Flatulance Gr3: 0 n(%)
  Headache Gr1: 1 n(%)
  Headache Gr2: 1 (7) n(%)
  Headache Gr3: 0 n(%)
  Hiccups Gr1: 4 n(%)
  Hiccups Gr2: 0 n(%)
  Hiccups Gr3: 0 n(%)
  Hot flush Gr1: 6 n(%)
  Hot flush Gr2: 0 n(%)
  Hot flush Gr3: 0 n(%)
  Myalgia Gr1: 0 n(%)
  Myalgia Gr2: 1 (7) n(%)
  Myalgia Gr3: 0 n(%)
  Nausea Gr1: 3 n(%)
  Nausea Gr2: 2 (14) n(%)
  Nausea Gr3: 0 n(%)
  Odynophagia Gr1: 1 n(%)
  Odynophagia Gr2: 1 (7) n(%)
  Odynophagia Gr3: 0 n(%)
  Oesophageal pain Gr1: 1 n(%)
  Oesophageal pain Gr2: 3 (21) n(%)
  Oesophageal pain Gr3: 0 n(%)
  Salivary hypersecretion Gr1: 2 n(%)
  Salivary hypersecretion Gr2: 0 n(%)
  Salivary hypersecretion Gr3: 0 n(%)
  Sensation of a foreign body Gr1: 1 n(%)
  Sensation of a foreign body Gr2: 0 n(%)
  Sensation of a foreign body Gr3: 0 n(%)
  Vomiting Gr1: 1 n(%)
  Vomiting Gr2: 5 (36) n(%)
  Vomiting Gr3: 1 (7) n(%)
750 mg, N = 8
  Abdominal discomfort Gr1: 1 (13) n(%)
  Abdominal discomfort Gr2: 1 (13) n(%)
  Abdominal discomfort Gr3: 0 n(%)
  Abdominal distension Gr1: 1 (13) n(%)
  Abdominal distension Gr2: 0 n(%)
  Abdominal distension Gr3: 0 n(%)
  Abdominal pain Gr1: 1 (13) n(%)
  Abdominal pain Gr2: 0 n(%)
  Abdominal pain Gr3: 0 n(%)
  Diarrhoea Gr1: 0 n(%)
  Diarrhoea Gr2: 0 n(%)
  Diarrhoea Gr3: 0 n(%)
  Dizziness Gr1: 1 (13) n(%)
  Dizziness Gr2: 0 n(%)
  Dizziness Gr3: 0 n(%)
  Dyspepsia Gr1: 4 (50) n(%)
  Dyspepsia Gr2: 0 n(%)
  Dyspepsia Gr3: 0 n(%)
  Dysphagia Gr1: 3 (38) n(%)
  Dysphagia Gr2: 1 (13) n(%)
  Dysphagia Gr3: 0 n(%)
  Flatulance Gr1: 1 (13) n(%)
  Flatulance Gr2: 0 n(%)
  Flatulance Gr3: 0 n(%)
  Headache Gr1: 3 (38) n(%)
  Headache Gr2: 0 n(%)
  Headache Gr3: 0 n(%)
  Hiccups Gr1: 2 (25) n(%)
  Hiccups Gr2: 0 n(%)
  Hiccups Gr3: 0 n(%)
  Hot flush Gr1: 2 (25) n(%)
  Hot flush Gr2: 0 n(%)
  Hot flush Gr3: 0 n(%)
  Myalgia Gr1: 1 (13) n(%)
  Myalgia Gr2: 0 n(%)
  Myalgia Gr3: 0 n(%)
  Nausea Gr1: 2 (25) n(%)
